System: 941728-121-R-J1-PDC complex spheroid viability
Assay: Anticancer human tumor 941728-121-R-J1-PDC patient-derived lung adenocarcinoma cell line growth inhibition [RAS]
Settings: for IC50: curve of first compound; for viability, T/C: stronger effect = lower value
How it was run: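 Tumour cells grown as complex spheroids with HUVEC endothelial cells and mesenchymal stem cells, treated with RAS pathway inhibitor combinations. Each agent spans half-log steps from near clinical Cmax, or 10 microM where Cmax is unknown.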
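Also: spheroids exposed to compounds for 7 days before readout.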
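For viability, T/C in this document: 100% = DMSO vehicle control viability.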

In the case of `CC(=O)OC12COC1CC(O)C1(C)C(=O)C(O)C3=C(C)C(OC(=O)C(O)C(NC(=O)OC(C)(C)C)c4ccccc4)CC(O)(C(OC(=O)c4ccccc4)C21)C3(C)C` (centres undefined) + CCn1c(-c2cc(N3CCN(C)CC3)cnc2C(C)OC)c2c3cc(ccc31)-c1csc(n1)CC(NC(=O)C1CC1C)C(=O)N1CCCC(N1)C(=O)OCC(C)(C)C2, the IC50 (second compound 0.000949 µM) is reported as < 0.0316 µM, the IC50 (second compound 0.003 µM) is reported as < 0.0316 µM and the IC50 (second compound 0.00949 µM) is reported as < 0.0316 µM. For the same compound, the IC50 (second compound 0.03 µM) was < 0.0316 µM, the IC50 (second compound 0.0949 µM) was < 0.0316 µM and the IC50 (second compound 0.3 µM) was < 0.0316 µM. The viability, T/C (second compound 0.000949 µM, first compound 0.0316 µM) was 21.7%, the viability, T/C (second compound 0.000949 µM, first compound 0.1 µM) was 21.4% and the viability, T/C (second compound 0.000949 µM, first compound 0.316 µM) was 16.5%. The viability, T/C (second compound 0.000949 µM, first compound 1 µM) was 19.6%, the viability, T/C (second compound 0.000949 µM, first compound 3.16 µM) was 21.3% and the viability, T/C (second compound 0.000949 µM, first compound 10 µM) was 16.5%. The viability, T/C (second compound 0.003 µM, first compound 0.0316 µM) was 15.3%, the viability, T/C (second compound 0.003 µM, first compound 0.1 µM) was 16.9% and the viability, T/C (second compound 0.003 µM, first compound 0.316 µM) was 12.5%. It also gave a viability, T/C (second compound 0.003 µM, first compound 1 µM) of 13.8%, a viability, T/C (second compound 0.003 µM, first compound 3.16 µM) of 13.4% and a viability, T/C (second compound 0.003 µM, first compound 10 µM) of 11.2%. For the same compound, the viability, T/C (second compound 0.00949 µM, first compound 0.0316 µM) was 13.5%, the viability, T/C (second compound 0.00949 µM, first compound 0.1 µM) was 9.99% and the viability, T/C (second compound 0.00949 µM, first compound 0.316 µM) was 11.2%. For the same compound, the viability, T/C (second compound 0.00949 µM, first compound 1 µM) was 9.23%, the viability, T/C (second compound 0.00949 µM, first compound 3.16 µM) was 10.8% and the viability, T/C (second compound 0.00949 µM, first compound 10 µM) was 10.2%. The viability, T/C (second compound 0.03 µM, first compound 0.0316 µM) was 10.2%, the viability, T/C (second compound 0.03 µM, first compound 0.1 µM) was 9.9% and the viability, T/C (second compound 0.03 µM, first compound 0.316 µM) was 9.46%. It also gave a viability, T/C (second compound 0.03 µM, first compound 1 µM) of 9.75%, a viability, T/C (second compound 0.03 µM, first compound 3.16 µM) of 7.17% and a viability, T/C (second compound 0.03 µM, first compound 10 µM) of 11.4%. The viability, T/C (second compound 0.0949 µM, first compound 0.0316 µM) was 10.4%, the viability, T/C (second compound 0.0949 µM, first compound 0.1 µM) was 11% and the viability, T/C (second compound 0.0949 µM, first compound 0.316 µM) was 9.54%. It also gave a viability, T/C (second compound 0.0949 µM, first compound 1 µM) of 8.5%, a viability, T/C (second compound 0.0949 µM, first compound 3.16 µM) of 8.8% and a viability, T/C (second compound 0.0949 µM, first compound 10 µM) of 9.11%. The viability, T/C (second compound 0.3 µM, first compound 0.0316 µM) was 9.41%, the viability, T/C (second compound 0.3 µM, first compound 0.1 µM) was 9.25% and the viability, T/C (second compound 0.3 µM, first compound 0.316 µM) was 8.94%. The viability, T/C (second compound 0.3 µM, first compound 1 µM) was 9.02%, the viability, T/C (second compound 0.3 µM, first compound 3.16 µM) was 7.68% and the viability, T/C (second compound 0.3 µM, first compound 10 µM) was 9.8%.

`CCc1c2c(nc3ccc(O)cc13)-c1cc3c(c(=O)n1C2)COC(=O)[C@]3(O)CC` + CCn1c(-c2cc(N3CCN(C)CC3)cnc2C(C)OC)c2c3cc(ccc31)-c1csc(n1)CC(NC(=O)C1CC1C)C(=O)N1CCCC(N1)C(=O)OCC(C)(C)C2 was tested, and the IC50 (second compound 0.000949 µM) was < 0.000949 µM, the IC50 (second compound 0.003 µM) was < 0.000949 µM and the IC50 (second compound 0.00949 µM) was < 0.000949 µM. The IC50 (second compound 0.03 µM) was < 0.000949 µM, the IC50 (second compound 0.0949 µM) was < 0.000949 µM and the IC50 (second compound 0.3 µM) was < 0.000949 µM. The viability, T/C (second compound 0.000949 µM, first compound 0.000949 µM) was 24.6%, the viability, T/C (second compound 0.000949 µM, first compound 0.003 µM) was 24.4% and the viability, T/C (second compound 0.000949 µM, first compound 0.00949 µM) was 19.9%. The viability, T/C (second compound 0.000949 µM, first compound 0.03 µM) was 20.5%, the viability, T/C (second compound 0.000949 µM, first compound 0.0949 µM) was 18.1% and the viability, T/C (second compound 0.000949 µM, first compound 0.3 µM) was 9.95%. For the same compound, the viability, T/C (second compound 0.003 µM, first compound 0.000949 µM) was 25.8%, the viability, T/C (second compound 0.003 µM, first compound 0.003 µM) was 16.7% and the viability, T/C (second compound 0.003 µM, first compound 0.00949 µM) was 12.8%. The viability, T/C (second compound 0.003 µM, first compound 0.03 µM) was 13.4%, the viability, T/C (second compound 0.003 µM, first compound 0.0949 µM) was 10.3% and the viability, T/C (second compound 0.003 µM, first compound 0.3 µM) was 5.76%. It also gave a viability, T/C (second compound 0.00949 µM, first compound 0.000949 µM) of 17.3%, a viability, T/C (second compound 0.00949 µM, first compound 0.003 µM) of 10.6% and a viability, T/C (second compound 0.00949 µM, first compound 0.00949 µM) of 13.3%. For the same compound, the viability, T/C (second compound 0.00949 µM, first compound 0.03 µM) was 10.5%, the viability, T/C (second compound 0.00949 µM, first compound 0.0949 µM) was 7.7% and the viability, T/C (second compound 0.00949 µM, first compound 0.3 µM) was 4.19%. It also gave a viability, T/C (second compound 0.03 µM, first compound 0.000949 µM) of 13.7%, a viability, T/C (second compound 0.03 µM, first compound 0.003 µM) of 14.1% and a viability, T/C (second compound 0.03 µM, first compound 0.00949 µM) of 9.58%. It also gave a viability, T/C (second compound 0.03 µM, first compound 0.03 µM) of 8.62%, a viability, T/C (second compound 0.03 µM, first compound 0.0949 µM) of 5.46% and a viability, T/C (second compound 0.03 µM, first compound 0.3 µM) of 4.56%. The viability, T/C (second compound 0.0949 µM, first compound 0.000949 µM) was 12.9%, the viability, T/C (second compound 0.0949 µM, first compound 0.003 µM) was 11.2% and the viability, T/C (second compound 0.0949 µM, first compound 0.00949 µM) was 10.6%. It also gave a viability, T/C (second compound 0.0949 µM, first compound 0.03 µM) of 8.43%, a viability, T/C (second compound 0.0949 µM, first compound 0.0949 µM) of 5.36% and a viability, T/C (second compound 0.0949 µM, first compound 0.3 µM) of 4.56%. For the same compound, the viability, T/C (second compound 0.3 µM, first compound 0.000949 µM) was 10.8%, the viability, T/C (second compound 0.3 µM, first compound 0.003 µM) was 10.7% and the viability, T/C (second compound 0.3 µM, first compound 0.00949 µM) was 9.64%. The viability, T/C (second compound 0.3 µM, first compound 0.03 µM) was 10.6%, the viability, T/C (second compound 0.3 µM, first compound 0.0949 µM) was 5.65% and the viability, T/C (second compound 0.3 µM, first compound 0.3 µM) was 3.94%.
